Read-outs that look alike come from different tables or passages of the source. *1 amine or outer side, *2 acyl side, *3 side chain or, on linkers, in order; H or OH if unused. Where a SMILES comes first, the peptide text is derived from it. Where no end group is shown, it is not given here. [ ]: non-standard residue; d: D form. Tyr(3-125I) = 3-[125I]iodotyrosine, O=C([C@H](Cc1ccc(O[*:3])c([125I])c1)N[*:1])[*:2]; Tyr(3-I) = N[C@@H](Cc1ccc(O)c(I)c1)C(=O)O
Columns and labels:
[1] = system: mouse peritoneal macrophages infected with S. typhimurium 415; assay: Phagocytosis (digestion) of S. typhimurium 415 by mouse peritoneal macrophages in vitro; conditions: for BCA, bacterial cytocidal activity, percentage of phagocytes destroyed by intracellular bacteria / PA, phagocytic activity, percentage of macrophages participating in phagocytosis / PN, phagocytic number, average number of microbes per macrophage: tuftsin 100 nM, ± SEM; for Time within which phagocytes completely digested the captured microbes: peptide 1 nM
[2] = system: T lymphocytes from the blood of healthy donors; assay: Con A-induced proliferation of T lymphocytes; type: cell-based, human
[3] = target: non-opioid receptors for β-endorphin on T lymphocytes; type: binding, human; conditions: for Ki: read-out: Ki, inhibition of [125I]β-endorphin binding
[4] = target: non-opioid (naloxone-insensitive) receptors for β-endorphin on T lymphocytes from normal human blood (human); assay: radioligand saturation binding on human T lymphocytes, Scatchard plot, in the absence of naloxone
[5] = target: non-opioid (naloxone-insensitive) receptors for β-endorphin on T lymphocytes from normal human blood (human); assay: radioligand saturation binding on human T lymphocytes, Scatchard plot, in the presence of naloxone
[6] = target: non-opioid receptors for β-endorphin on T lymphocytes; type: binding, human
[7] = target: non-opioid (naloxone-insensitive) receptors for β-endorphin on T lymphocytes from normal human blood (human); assay: displacement of 1 nM [125I]β-endorphin from human T lymphocytes; Ki=IC50/(1+[L]/Kd)
[8] = mouse, in vivo
in vivo = conditions: BCA, mouse, ip
[9] = target: high-affinity (non-opioid) β-endorphin receptors on murine peritoneal macrophages; conditions: read-out: Ki, inhibition of [125I]β-endorphin binding to non-opioid receptors
[10] = system: mouse peritoneal macrophages infected with S. typhimurium 415; assay: Combined action of streptomycine and peptide on digestion of S. typhimurium 415 by mouse peritoneal macrophages in vitro; conditions: streptomycine 50 μg/ml alone or 10 μg/ml + peptide 1 nM
[11] = target: non-opioid (naloxone-insensitive) receptors for β-endorphin on T lymphocytes from normal human blood (human); assay: radioligand saturation binding on human T lymphocytes, Scatchard analysis, one-site model
[12] = target: non-opioid (naloxone-insensitive) receptors for β-endorphin on T lymphocytes from normal human blood (human); assay: radioligand saturation binding on human T lymphocytes, 4 °C, Scatchard analysis
[13] = phagocytosis time 1 h, pentarphin, cyclopentarphin 1 nM
[14] = phagocytosis time 2 h, pentarphin, cyclopentarphin 1 nM
[15] = phagocytosis time 4 h, pentarphin, cyclopentarphin 1 nM
[16] = phagocytosis time 7 h, pentarphin, cyclopentarphin 1 nM
[17] = phagocytosis time 12 h, pentarphin 1 nM
[18] = T lymphocytes of healthy donors
[19] = read-out: Kd of labeled peptide binding to T lymphocytes

Thr-Lys-Pro-Arg (TKPR; printed: Thr-Lys-Pro-Arg) [Tuftsin, reference compound]
BCA, bacterial cytocidal activity, percentage of phagocytes destroyed by intracellular bacteria [1, 13]: 1.41 ± 0.27% | PA, phagocytic activity, percentage of macrophages participating in phagocytosis [1, 13]: 66.07 ± 1.82% | PN, phagocytic number, average number of microbes per macrophage [1, 13]: 5.84 ± 0.27 n | BCA, bacterial cytocidal activity, percentage of phagocytes destroyed by intracellular bacteria [1, 14]: 8.12 ± 0.99% | PA, phagocytic activity, percentage of macrophages participating in phagocytosis [1, 14]: 74.11 ± 1.42% | PN, phagocytic number, average number of microbes per macrophage [1, 14]: 7.31 ± 0.25 n | BCA, bacterial cytocidal activity, percentage of phagocytes destroyed by intracellular bacteria [1, 15]: 29.34 ± 0.75% | PA, phagocytic activity, percentage of macrophages participating in phagocytosis [1, 15]: 61.97 ± 1.18% | PN, phagocytic number, average number of microbes per macrophage [1, 15]: 6.29 ± 0.48 n | BCA, bacterial cytocidal activity, percentage of phagocytes destroyed by intracellular bacteria [1, 16]: 31.46 ± 1.23% | PA, phagocytic activity, percentage of macrophages participating in phagocytosis [1, 16]: 38.48 ± 0.23% | PN, phagocytic number, average number of microbes per macrophage [1, 16]: 3.32 ± 0.56 n | BCA, bacterial cytocidal activity, percentage of phagocytes destroyed by intracellular bacteria [1, 17]: 7.64 ± 1.38% | PA, phagocytic activity, percentage of macrophages participating in phagocytosis [1, 17]: 9.31 ± 0.29% | PN, phagocytic number, average number of microbes per macrophage [1, 17]: 1.36 ± 0.86 n | Activity, times lower than pentarphin/cyclopentarphin ([1]; tuftsin acted the same way at 100 nM versus 1 nM): 100 times

C=CCN1CC[C@]23c4c5ccc(O)c4O[C@H]2C(=O)CC[C@@]3(O)[C@H]1C5 [naloxone]
Effect on Con A-induced proliferation of T lymphocytes [2, 18]: not active

cyclo(Val-Lys-Gly-Phe-Tyr) (VKGFY; cyclic; printed: Val-Lys-Gly-Phe-Tyr) [Cyclopentarphin]
Time within which phagocytes completely digested the captured microbes [1]: ≤ 7 h | BCA, bacterial cytocidal activity, percentage of phagocytes destroyed by intracellular bacteria [1, 13]: 1.25 ± 0.64% | PA, phagocytic activity, percentage of macrophages participating in phagocytosis [1, 13]: 87.81 ± 3.14% | PN, phagocytic number, average number of microbes per macrophage [1, 13]: 7.78 ± 0.39 n | BCA, bacterial cytocidal activity, percentage of phagocytes destroyed by intracellular bacteria [1, 14]: 1.06 ± 0.49% | PN, phagocytic number, average number of microbes per macrophage [1, 14]: 8.81 ± 0.27 n | BCA, bacterial cytocidal activity, percentage of phagocytes destroyed by intracellular bacteria [1, 15]: 2.13 ± 0.60% | PA, phagocytic activity, percentage of macrophages participating in phagocytosis [1, 15]: 57.43 ± 2.01% | PN, phagocytic number, average number of microbes per macrophage [1, 15]: 5.32 ± 0.51 n | BCA, bacterial cytocidal activity, percentage of phagocytes destroyed by intracellular bacteria [1, 16]: 2.22 ± 1.31% | PA, phagocytic activity, percentage of macrophages participating in phagocytosis [1, 16]: 1.74 ± 0.44% | PN, phagocytic number, average number of microbes per macrophage [1, 16]: 0.27 ± 0.20 n

H-LTCLVKGFY-OH
Ki [3]: 1 nM

[Met^5]enkephalin [Met-enkephalin, reference compound]
Effect on Con A-induced proliferation of T lymphocytes [2]: not active | Inhibition of β-endorphin binding in displacement assay [3]: not inhibited

[125I]-immunorphin (peptide)
Kd [4]: 7 nM | Kd [5]: 7.4 nM

CC(C)[C@H](N)C(=O)N[C@@H](CCCCN)C(=O)NCC(=O)N[C@@H](Cc1ccccc1)C(=O)N[C@@H](Cc1ccc(O)c(I)c1)C(=O)O [[^125I]-H-VKGFY-OH] (H-VKGF[Tyr(3-I)]-OH)
Kd [6, 19]: 36.3 ± 0.5 nM

H-LVKGFY-OH [H-LVKGFY-OH]
Ki [3]: 8 nM

immunorphin (H-…-OH) (peptide)
Ki [7]: 0.6 nM

H-TCLVKGFY-OH
Ki [3]: 2.2 nM

H-VKGFY-OH [Pentarphin, Val-Lys-Gly-Phe-Tyr]
Kd [6, 19]: 36.3 ± 0.5 nM | Immunogenicity [8]: No immunogenicity | LD50 (in vivo): 2500 mg/kg | Ki [9]: 12 nM | Time within which phagocytes completely digested the captured microbes [1]: ≤ 12 h | BCA, bacterial cytocidal activity, percentage of phagocytes destroyed by intracellular bacteria [1, 13]: 1.08 ± 0.71% | PA, phagocytic activity, percentage of macrophages participating in phagocytosis [1, 13]: 84.08 ± 2.12% | PN, phagocytic number, average number of microbes per macrophage [1, 13]: 7.11 ± 0.15 n | BCA, bacterial cytocidal activity, percentage of phagocytes destroyed by intracellular bacteria [1, 14]: 1.55 ± 0.65% | PA, phagocytic activity, percentage of macrophages participating in phagocytosis [1, 14]: 89.15 ± 1.78% | PN, phagocytic number, average number of microbes per macrophage [1, 14]: 9.29 ± 0.74 n | BCA, bacterial cytocidal activity, percentage of phagocytes destroyed by intracellular bacteria [1, 15]: 9.32 ± 1.32% | PA, phagocytic activity, percentage of macrophages participating in phagocytosis [1, 15]: 66.82 ± 1.14% | PN, phagocytic number, average number of microbes per macrophage [1, 15]: 6.02 ± 0.66 n | PA, phagocytic activity, percentage of macrophages participating in phagocytosis [1, 16]: 23.31 ± 0.84% | PN, phagocytic number, average number of microbes per macrophage [1, 16]: 1.03 ± 0.24 n | BCA, bacterial cytocidal activity, percentage of phagocytes destroyed by intracellular bacteria [1, 17]: 2.35 ± 1.21% | PA, phagocytic activity, percentage of macrophages participating in phagocytosis [1, 17]: 3.73 ± 0.64% | PN, phagocytic number, average number of microbes per macrophage [1, 17]: 0.66 ± 0.12 n | Effect on Con A-induced proliferation of T lymphocytes [2]: stimulate | Stimulating effect on T lymphocyte proliferation in presence of naloxone [2]: not inhibited by naloxone | Ki [3]: 15 nM

CC(C)C[C@H](NC(=O)[C@H](CS)NC(=O)[C@@H](NC(=O)[C@H](CC(C)C)NC(=O)[C@@H](N)CO)[C@@H](C)O)C(=O)N[C@H](C(=O)N[C@@H](CCCCN)C(=O)NCC(=O)N[C@@H](Cc1ccccc1)C(=O)N[C@@H](Cc1ccc(O)c(I)c1)C(=O)O)C(C)C [[^125I]-immunorphin] (H-SLTCLVKGF[Tyr(3-I)]-OH)
Kd [6, 19]: 7 ± 0.3 nM | Kd ([6]; read-out: Kd of labeled peptide binding to T lymphocytes in the presence of naloxone): 7.4 ± 0.2 nM

SLTCLVKGFY [immunorphin]
Effect on Con A-induced proliferation of T lymphocytes [2, 18]: stimulate

[H]/N=C(/N)N[C@H]1[C@H](O)[C@@H](O)[C@H](O[C@@H]2O[C@@H](C)[C@](O)(C=O)[C@H]2O[C@@H]2O[C@@H](CO)[C@H](O)[C@@H](O)[C@@H]2NC)[C@@H](N/C(N)=N\[H])[C@@H]1O [Streptomycine]
BCA, bacterial cytocidal activity ([10]; phagocytosis time 1 h, ± SEM): 1.04 ± 0.32% | PA, phagocytic activity ([10]; phagocytosis time 1 h, ± SEM): 86.45 ± 2.13% | PN, phagocytic number ([10]; phagocytosis time 1 h, ± SEM): 8.56 ± 0.76 n | BCA, bacterial cytocidal activity ([10]; phagocytosis time 2 h, ± SEM): 1.12 ± 0.74% | PA, phagocytic activity ([10]; phagocytosis time 2 h, ± SEM): 96.17 ± 1.76% | PN, phagocytic number ([10]; phagocytosis time 2 h, ± SEM): 2.03 ± 0.46 n | BCA, bacterial cytocidal activity ([10]; phagocytosis time 4 h): 0% | PA, phagocytic activity ([10]; phagocytosis time 4 h): 0% | PN, phagocytic number ([10]; phagocytosis time 4 h): 0 n

H-CLVKGFY-OH [H-CLVKGFY-OH]
Ki [3]: 3.4 nM

B1: H-LVKGFY-OH (peptide)
peptide: H-LVKGFY-OH
Ki [7]: 8 nM

B2: H-…-OH (peptide)
peptide: H-LTCLVKGFY-OH
Ki [7]: 1 nM

B3: [125I]-H-VKGFY-OH (peptide)
peptide: H-VKGFY-OH
modifications: also: 125I label, residue not given here
Kd [11]: 36.3 nM

B4: pentarphin (H-VKGFY-OH) (peptide)
peptide: H-VKGFY-OH
Ki [7]: 15 nM

B5: H-CLVKGFY-OH (peptide)
peptide: H-CLVKGFY-OH
Ki [7]: 3.4 nM

B6: (3-[125I]iodotyrosyl27)β-endorphin (peptide)
peptide: YGGFMTSEKSQTPLVTLFKNAIIKNA[Tyr(3-125I)]KKGE
Kd [12]: 0.25 nM

B7: H-TCLVKGFY-OH (peptide)
peptide: H-TCLVKGFY-OH
Ki [7]: 2.2 nM
